For data set [1], the system named is AMPD isolated from squirrel liver (AMPD2). The data set can be described thus: AMP deaminase activity by ammonia production. The format is biochemical. The protocol:
AMP deaminase activity was determined by estimating the production of ammonia by a modification of the method described by Chaney and Marbach. See, Chaney et al., Clin Chem., 1962, 8, 130-132; Ito et al., J Biochem., 1988, 103, 259-262; and Sims et al., Neurobiol Aging., 1998, 19, 385-391. Briefly, the reaction mixture consisted of 25 mM sodium citrate, pH 6.0, 50 mM potassium chloride, and different concentration of AMP. The enzyme reaction was initiated by the addition of the enzyme solution and incubated at 37° C. for 15 min. The reaction was stopped with the addition of the phenol/hypochlorite reagents: Reagent A (100 mM phenol and 0.050 g/L sodium nitroprusside in H2O) was added, followed by reagent B (125 mM sodium hydroxide, 200 mM dibasic sodium phosphate, and 0.1% sodium hypochlorite in H2O) and incubated for 30 min at 25° C. The absorbance of the samples was measured at 625 nm with a spectrophotometer. To determine the absolute specific activity of ammonia production (micromoles ammonia/min), a calibration curve was determined in the range of 5 μM to 1 mM of ammonia.
Using the procedure above, various AMPD2 inhibitors were assayed. […] For this assay AMPD isolated from squirrel liver was used, which only expresses AMPD2 and not the other AMPD isoforms.

Data set [2] has as its system AMP deaminase. The conditions noted are these: cited from earlier work.
Data set [3] deals with fructose induced fatty liver. The data set can be described thus: Fructose induced fatty liver and hypertriglyceridemia in rats. The format is in vivo, Male Sprague Dawley rats. The text has this: Fructose only and control diet rats also received daily i.p injections of vehicle. At the end of two weeks rats were sacrificed. […] FIG. 12A. […] FIG. 12B.
The target in data set [4] is T1, AMPD2 (Homo sapiens, UniProt Q01433).
T1 sequence (Q01433 1-825): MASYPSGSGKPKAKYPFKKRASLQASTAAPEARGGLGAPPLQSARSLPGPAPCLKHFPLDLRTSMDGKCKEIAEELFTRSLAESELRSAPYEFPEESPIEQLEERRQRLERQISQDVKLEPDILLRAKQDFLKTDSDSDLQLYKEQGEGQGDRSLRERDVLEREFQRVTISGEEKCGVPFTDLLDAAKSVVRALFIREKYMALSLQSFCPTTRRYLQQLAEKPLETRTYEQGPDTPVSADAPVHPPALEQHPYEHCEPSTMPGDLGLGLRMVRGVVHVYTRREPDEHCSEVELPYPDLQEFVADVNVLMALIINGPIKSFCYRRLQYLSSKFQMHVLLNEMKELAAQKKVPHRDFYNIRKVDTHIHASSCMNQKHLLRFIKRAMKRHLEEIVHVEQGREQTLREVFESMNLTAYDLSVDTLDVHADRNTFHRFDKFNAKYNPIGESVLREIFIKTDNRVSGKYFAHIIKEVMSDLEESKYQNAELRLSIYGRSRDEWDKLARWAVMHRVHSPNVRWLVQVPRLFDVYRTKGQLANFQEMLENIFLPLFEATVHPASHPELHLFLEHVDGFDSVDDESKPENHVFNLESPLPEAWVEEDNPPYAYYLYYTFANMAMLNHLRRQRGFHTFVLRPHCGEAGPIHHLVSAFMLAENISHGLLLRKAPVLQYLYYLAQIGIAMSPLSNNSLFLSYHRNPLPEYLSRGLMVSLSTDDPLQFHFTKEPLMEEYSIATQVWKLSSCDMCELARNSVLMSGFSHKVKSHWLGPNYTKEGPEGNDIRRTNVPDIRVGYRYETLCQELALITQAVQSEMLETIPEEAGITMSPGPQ
As to the kind of experiment: AMPD2 regulation by fructose-1-phosphate. The conditions noted are these: FIG. 15. The format is biochemical. The source says:
Fructokinase uses ATP to phosphorylate fructose to fructose-1-phosphate leading to a reduction of ATP and generation of AMP, leading to the activation of AMPD2.

Data set [5] concerns HepG2 cells. The data set can be described thus: Fructose-stimulated HepG2 cells treated with metformin or AICAR. The format is cell-based, human. The conditions noted are these: for rise in intracellular triglycerides in response to fructose: HepG2, fructose 5 mM; for fall in enoyl CoA hydratase-1 (ECH-1) levels (defect in fat oxidation): HepG2, fructose 5 mM for 72 hrs, densitometry of western blot. A general note: Immunoblotting shows a protein as a band on a membrane.

The subject of data set [6] is AMP deaminase in isolated cardiomyoctes. The conditions noted are these: isolated cardiomyocytes; cited from earlier work.
The target of data set [7] is AMP deaminase. The conditions noted are these: Ki as low as; cited from earlier work.
Data set [8] has as its target T2, adenosine deaminase (Homo sapiens, UniProt P00813).
T2 sequence (P00813 1-363): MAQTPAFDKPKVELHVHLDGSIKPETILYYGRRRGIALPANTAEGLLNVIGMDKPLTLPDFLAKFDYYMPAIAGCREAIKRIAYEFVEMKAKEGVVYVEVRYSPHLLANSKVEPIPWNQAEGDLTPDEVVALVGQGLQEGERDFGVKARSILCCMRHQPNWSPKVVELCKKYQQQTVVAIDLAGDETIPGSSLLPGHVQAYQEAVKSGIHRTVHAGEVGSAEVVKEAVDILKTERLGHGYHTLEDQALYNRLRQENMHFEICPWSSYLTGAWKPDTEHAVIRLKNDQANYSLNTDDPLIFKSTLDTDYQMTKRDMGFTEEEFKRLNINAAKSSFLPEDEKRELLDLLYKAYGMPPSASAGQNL
The conditions noted are these: cited from earlier work.

Data set [9] relates to purified human cardiac AMP deaminase. The conditions noted are these: purified enzyme; cited from earlier work.
Data set [10] concerns HepG2 cells. The conditions noted are these: with IMP.
In data set [11] the target is T2, adenosine deaminase. The conditions noted are these: cited from earlier work. The source holds these as a separate data set.
In data set [12] the test system is AMPD2 mRNA. The data set can be described thus: Silencing of AMPD2 with shRNA in HepG2 cells. The format is cell-based, human. The text has this:
An shRNA for AMPD2 was employed to silence human hepatic cells (HepG2). (FIGS. 3 and 4) The silencing vector pSM2-AMPD2 (V2HS—172668, Open Biosystems) incorporates a 22-base shRNAmir trigger designed to mimic a natural microRNA primary transcript. The target sequence is specific for human AMPD2 and has been selected based on thermodynamic criteria for optimal small RNA performance. The specific sequence is 5′-[…]-3′(SEQ ID NO: 1).
The immortalized human hepatocytes cell line, HepG2, was transfected with the silencing vector pSM2-AMPD2 using Lipofectamine LTX Plus (Invitrogen) as described by the manufacturer (FIG. 4). Briefly, cell cultures were grown to 90-95% confluence in normal growth media and in 24-well plates. Lipid-DNA complexes were prepared as per recommended protocols using growth media without serum. 100 μl of the lipid-DNA solution was added per well of attached cells and incubated for 4 hrs at 37° C. Wells were then diluted with 1.5 ml of normal growth media and incubated for an additional 24 hrs prior to addition of selective media containing 1 μg/mL Puromycin antibiotic. After 7 days, stable transfectants (clones) were selected with glass cloning rings, replated and a second colony selection was performed to provide a clean clone for analysis. Validation of AMPD2 gene knock down was performed by harvesting protein and performing a Western blot for protein expression. Clone #5 was subsequently used for the experiments and was designated as sAMPD2.
A key enzyme in Beta fatty acid oxidation, enoyl CoA hydratase-1 (ECH-1), was stimulated in control cells as well as fructose treated cells in which AMPD2 had been silenced. The inhibition of AMPD2 by sAMPD2 was accompanied by an upregulation of phosphorylated AMPkinase (Thr172) in both unstimulated and fructose stimulated hepatocytes, whereas total AMPK was not altered.
The stimulation of fat oxidation in AMPD2 knocked down hepatocytes was confirmed by measuring β hydroxybutyrate, a fat oxidation product (FIG. 5B).
The stimulation of phosphorylated AMP kinase in human hepatocytes (HepG2 cells) by silencing AMPD2 with shRNA as shown in FIG. 5A led to […] of target genes as noted by Western blot (FIG. 6A). For example, the phosphorylated form of Acetyl CoA Carboxylase (pACC) which is involved in triglyceride synthesis was induced by silencing AMPD2 in both unstimulated and fructose stimulated cells. […] Importantly, these changes blocked the triglyceride accumulation in HepG2 cells in response to fructose (FIG. 6B).
Silencing AMPD2 prevented the upregulation of KHK in response to fructose.

Setting [13] is: unstimulated and fructose stimulated hepatocytes.

As to `OC[C@H]1O[C@@H](n2cnc3c2NC=NC[C@H]3O)C[C@@H]1O` [pentostatin, deoxycoformycin], the “inhibition of AMPD2 activity” value in [1] (in the presence of 2 mM AMP) is reported as 64%; in [1] (in the presence of 10 mM AMP) it was 72%. Besides, the AMP deaminase inhibition entry in data set [2] is reported as “block”. Besides, in [3] (at two weeks, 0.1 mg/kg daily i.p.), the “rise in fasting serum triglycerides in response to fructose” value was “significantly reduced the rise”. Moreover, the “rise in serum triglycerides in response to a bolus of fructose” value in [3] (at two weeks, fructose 2 g/kg body weight by gavage) was “blocked the rise”. For the same compound, the “fatty liver (lipid deposits, Oil Red O stain)” value in data set [3] (fructose 20% in water two weeks, 0.1 mg/kg daily i.p.) is “largely prevented”.

Turning to `O=C(COP(=O)(O)O)[C@@H](O)[C@H](O)[C@H](O)CO` [fructose-1-phosphate], the AMPD2 activity result in [4] is “increases”.

With `CN(C)C(=N)N=C(N)N` [metformin], in data set [5], the “rise in intracellular triglycerides in response to fructose” value is on record as “prevented the rise” and the “fall in enoyl CoA hydratase-1 (ECH-1) levels (defect in fat oxidation)” value is given as “reversed”.

For orientation: Ki means the dissociation constant of the complex between target and ligand, obtained from inhibition or displacement. For the compound “3-[2-(3-carboxy-4-bromo-5,6,7,8-tetrahydronaphthyl)ethyl]-3,6,7,8-tetrahydroimidazo[4,5-d][1,3]diazepin-8-ol [compound 24b]”, the “concentration found to inhibit the enzyme” value in data set [6] is given as 0.5 mM. The Ki in data set [7] was 2 nM. Moreover, in data set [8], the “activity for adenosine deaminase” value is “minimal activity”. In addition, the “concentration found to inhibit” value in data set [9] is 0.5 µM.

`Oc1ncnc2[nH]ncc12` [allopurinol]: in data set [10], the IMP-stimulated triglyceride accumulation result was “partially blocked” and the “rescue of the IMP-induced reduction in ECoAH” value is “cannot fully rescue”.

As for `OC[C@H]1O[C@@H](c2n[nH]c3cncnc23)[C@H](O)[C@@H]1O` [deaminoformycin], in data set [2], the AMP deaminase inhibition result is listed as “block”. The adenosine deaminase inhibition result in data set [11] is “block”.

For the compound `NC(=O)c1ncn([C@@H]2O[C@H](CO)[C@@H](O)[C@H]2O)c1N` [AICAR, aminoimidazole carboxamide ribonucleotide], the AMPD2 activity entry in data set [1] (FIG. 8A) is on record as “inhibits AMPD2 activity in a dose dependent manner”. In data set [5], the “rise in intracellular triglycerides in response to fructose” value is recorded as “prevented the rise” and the “fall in enoyl CoA hydratase-1 (ECH-1) levels (defect in fat oxidation)” value is given as “reversed”.

With `OC[C@H]1O[C@@H](n2cnc3c2N=CNC[C@H]3O)[C@H](O)[C@@H]1O` [Coformycin], the AMP deaminase inhibition result in [2] was “inhibits”.

In the case of `OC[C@H]1C[C@@H](n2cnc3cncnc32)[C@H](O)[C@@H]1O` [carbocyclic nebularine], the AMP deaminase inhibition entry in data set [2] is on record as “block”. The adenosine deaminase inhibition result in [11] is reported as “block”.

Regarding “sAMPD2: silencing vector pSM2-AMPD2 with 22-base shRNAmir specific for human AMPD2, 5′-ACCTGGGAATCTGCTCATTGTT-3′; stable HepG2 clone #5 (the letters are possibly those of the target site)”, the “triglyceride accumulation in HepG2 cells in response to fructose” value in [12] (FIG. 6B) is given as “blocked”. In [12] (control HepG2 cells, Western blot), the AMPD2 expression entry is listed as “reduced”. The “enoyl CoA hydratase-1 (ECH-1)” value in data set [12] (control cells as well as fructose treated cells) was “stimulated”. Also, the “increased AMPD2 expression” value in data set [12] (fructose treated hepatocytes, Western blot) is on record as “blocked”. Besides, in data set [12] (unstimulated and fructose stimulated cells, Western blot), the “phosphorylated form of Acetyl CoA Carboxylase (pACC)” value is given as “induced”. Moreover, in data set [12] (setting [13]), the “phosphorylated AMPkinase (Thr172)” value is reported as “upregulation” and the “total AMPK” value is “not altered”. Also, the “phosphorylated form of glycogen synthase (pGS)” value in data set [12] (unstimulated conditions and in the presence of fructose) is reported as “induced”.
